Laboratory results from patent US7074789B2, “Kinase inhibitors” (Amgen Inc., priority 1999, dated 2006).
Like-named read-outs stand apart in the source and are kept apart here.

Legend:
Assay type in all cases: biochemical
AKT = biological target: T1, AKT (Homo sapiens, UniProt Q9Y243); test: Kinase inhibition assay (33P transfer), AKT; details: Table 2, kinase inhibition class; read-out: AKT3-1
T1 construct: Kinases are expressed as either kinase domains or full length constructs; made in house
Procedure, shortened: (§1)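 Radiometric readout: 33P incorporated into surface-bound poly(Glu,Tyr) 4:1 or poly(Arg,Ser) 3:1 is counted by liquid scintillation after a 0.5% phosphoric acid wash. Enzymes were GST or polyHis fusions (kinase domain or full length) from E. coli or High Five insect cells.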

Zap-70 = biological target: T2, Zap-70 (Homo sapiens, UniProt P43403); test: Kinase inhibition assay (33P transfer), Zap-70; details: read-out: Zap-1
T2 construct: Kinases are expressed as either kinase domains or full length constructs; made in house
T2 sequence (P43403 1-619): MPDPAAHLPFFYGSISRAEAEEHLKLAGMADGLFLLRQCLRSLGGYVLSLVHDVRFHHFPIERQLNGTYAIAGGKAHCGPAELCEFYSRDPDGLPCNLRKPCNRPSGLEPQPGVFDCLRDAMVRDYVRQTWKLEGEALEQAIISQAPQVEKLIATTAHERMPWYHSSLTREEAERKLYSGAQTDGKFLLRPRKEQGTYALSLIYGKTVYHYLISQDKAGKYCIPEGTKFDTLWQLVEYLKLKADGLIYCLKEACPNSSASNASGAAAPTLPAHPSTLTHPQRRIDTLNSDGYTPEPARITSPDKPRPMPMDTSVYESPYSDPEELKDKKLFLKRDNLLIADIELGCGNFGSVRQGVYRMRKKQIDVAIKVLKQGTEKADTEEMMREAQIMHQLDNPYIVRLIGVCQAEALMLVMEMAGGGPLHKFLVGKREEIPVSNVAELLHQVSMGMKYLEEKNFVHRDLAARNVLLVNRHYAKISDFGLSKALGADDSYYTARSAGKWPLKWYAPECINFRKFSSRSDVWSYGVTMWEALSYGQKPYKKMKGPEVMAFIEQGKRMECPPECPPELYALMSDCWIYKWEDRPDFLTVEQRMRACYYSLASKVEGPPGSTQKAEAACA
Procedure, shortened: as §1

Kdr = biological target: T3, Kdr (Homo sapiens, UniProt P35968); test: Kinase inhibition assay (33P transfer), Kdr; details: read-out: KDR-1
T3 construct: Kinases are expressed as either kinase domains or full length constructs; made in house
Procedure, shortened: as §1

Lck = biological target: T4, Lck (Homo sapiens, UniProt P06239); test: Kinase inhibition assay (33P transfer), Lck; details: read-out: Lck-1
T4 construct: Kinases are expressed as either kinase domains or full length constructs; made in house
Procedure, shortened: as §1

EGFR = biological target: T5, EGFR (Homo sapiens, UniProt P00533); test: Kinase inhibition assay (33P transfer), EGFR; details: Table 2, kinase inhibition class; read-out: EGFR-1
T5 construct: Kinases are expressed as either kinase domains or full length constructs; made in house
Procedure, shortened: (§2)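 Kinase domains or full-length enzymes, GST- or polyHis-tagged, were expressed in E. coli or baculovirus High Five cells and affinity-purified. Transfer of 33PO4 from ATP onto plate-bound poly(Glu,Tyr) 4:1 or poly(Arg,Ser) 3:1 was counted by liquid scintillation after a 0.5% phosphoric acid wash. IC50 = concentration halving incorporation.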

Itk = biological target: T6, Itk (Homo sapiens, UniProt Q08881); test: Kinase inhibition assay (33P transfer), Itk; details: read-out: Itk-1
T6 construct: Kinases are expressed as either kinase domains or full length constructs; made in house
T6 sequence (Q08881 1-620): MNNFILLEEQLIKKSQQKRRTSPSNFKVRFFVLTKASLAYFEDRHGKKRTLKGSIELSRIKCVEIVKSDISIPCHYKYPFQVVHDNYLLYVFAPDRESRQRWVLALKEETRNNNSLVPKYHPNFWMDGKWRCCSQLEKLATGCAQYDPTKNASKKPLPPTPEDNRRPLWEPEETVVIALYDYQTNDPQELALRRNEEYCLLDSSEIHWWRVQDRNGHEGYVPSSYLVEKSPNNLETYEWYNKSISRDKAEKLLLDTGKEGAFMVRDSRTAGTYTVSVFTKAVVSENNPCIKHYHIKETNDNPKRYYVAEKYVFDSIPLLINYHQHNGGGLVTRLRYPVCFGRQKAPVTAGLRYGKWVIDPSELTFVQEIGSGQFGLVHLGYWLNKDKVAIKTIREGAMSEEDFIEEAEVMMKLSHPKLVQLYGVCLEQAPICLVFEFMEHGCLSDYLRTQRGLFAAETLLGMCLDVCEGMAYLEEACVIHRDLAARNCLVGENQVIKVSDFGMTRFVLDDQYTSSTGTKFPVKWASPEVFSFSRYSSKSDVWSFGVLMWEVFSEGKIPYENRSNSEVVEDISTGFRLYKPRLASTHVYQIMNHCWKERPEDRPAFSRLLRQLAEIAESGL
Procedure, shortened: as §2

c-Met = biological target: T7, c-Met (Homo sapiens, UniProt P08581); test: Kinase inhibition assay (33P transfer), c-Met; details: Table 2, kinase inhibition class; read-out: Met-1
T7 construct: Kinases are expressed as either kinase domains or full length constructs; made in house
Procedure, shortened: as §2

Tek = biological target: T8, Tek (Homo sapiens, UniProt Q02763); test: Kinase inhibition assay (33P transfer), Tek; details: read-out: Tek-1
T8 construct: Kinases are expressed as either kinase domains or full length constructs; made in house
Source text: The inhibitor compounds described herein are screened in the following manner. Kinases suitable for use in the following protocol to determine kinase activity of the compounds described herein include, -but are not limited to: Lck, Lyn, Src, Fyn, Syk, Zap-70, Itk, Tec, Btk, EGFR, ErbB2, Kdr, Flt-1, Flt-3, Tek, c-Met, InsR, and AKT.
Kinases are expressed as either kinase domains or full length constructs fused to glutathione S-transferase (GST) or polyHistidine tagged fusion proteins in either E. colior Baculovirus-High Five expression systems. They are purified to near homogeneity by affinity chromatography essentially as previously described (Lehr et al., 1996; Gish et al., 1995). In some instances, kinases are co-expressed or mixed with purified or partially purified regulatory polypeptides prior to measurement of activity.
Kinase activity and inhibition are measured essentially by established protocols (Braunwalder et al., 1996). Briefly, The transfer of ^33PO4 from ATP to the synthetic substrates poly(Glu, Tyr) 4:1 or poly(Arg, Ser) 3:1 attached to the bioactive surface of microtiter plates serves as the basis to evaluate enzyme activity. After an incubation period, the amount of phosphate transferred is measured by first washing the plate with 0.5% phosphoric acid, adding liquid scintillant, and then counting in a liquid scintillation detector. The IC50 is determined by the concentration of compound that causes a 50% reduction in the amount of […] incorporated onto the substrate bound to the plate.

T3 sequence (P35968 20-1356, species assumed): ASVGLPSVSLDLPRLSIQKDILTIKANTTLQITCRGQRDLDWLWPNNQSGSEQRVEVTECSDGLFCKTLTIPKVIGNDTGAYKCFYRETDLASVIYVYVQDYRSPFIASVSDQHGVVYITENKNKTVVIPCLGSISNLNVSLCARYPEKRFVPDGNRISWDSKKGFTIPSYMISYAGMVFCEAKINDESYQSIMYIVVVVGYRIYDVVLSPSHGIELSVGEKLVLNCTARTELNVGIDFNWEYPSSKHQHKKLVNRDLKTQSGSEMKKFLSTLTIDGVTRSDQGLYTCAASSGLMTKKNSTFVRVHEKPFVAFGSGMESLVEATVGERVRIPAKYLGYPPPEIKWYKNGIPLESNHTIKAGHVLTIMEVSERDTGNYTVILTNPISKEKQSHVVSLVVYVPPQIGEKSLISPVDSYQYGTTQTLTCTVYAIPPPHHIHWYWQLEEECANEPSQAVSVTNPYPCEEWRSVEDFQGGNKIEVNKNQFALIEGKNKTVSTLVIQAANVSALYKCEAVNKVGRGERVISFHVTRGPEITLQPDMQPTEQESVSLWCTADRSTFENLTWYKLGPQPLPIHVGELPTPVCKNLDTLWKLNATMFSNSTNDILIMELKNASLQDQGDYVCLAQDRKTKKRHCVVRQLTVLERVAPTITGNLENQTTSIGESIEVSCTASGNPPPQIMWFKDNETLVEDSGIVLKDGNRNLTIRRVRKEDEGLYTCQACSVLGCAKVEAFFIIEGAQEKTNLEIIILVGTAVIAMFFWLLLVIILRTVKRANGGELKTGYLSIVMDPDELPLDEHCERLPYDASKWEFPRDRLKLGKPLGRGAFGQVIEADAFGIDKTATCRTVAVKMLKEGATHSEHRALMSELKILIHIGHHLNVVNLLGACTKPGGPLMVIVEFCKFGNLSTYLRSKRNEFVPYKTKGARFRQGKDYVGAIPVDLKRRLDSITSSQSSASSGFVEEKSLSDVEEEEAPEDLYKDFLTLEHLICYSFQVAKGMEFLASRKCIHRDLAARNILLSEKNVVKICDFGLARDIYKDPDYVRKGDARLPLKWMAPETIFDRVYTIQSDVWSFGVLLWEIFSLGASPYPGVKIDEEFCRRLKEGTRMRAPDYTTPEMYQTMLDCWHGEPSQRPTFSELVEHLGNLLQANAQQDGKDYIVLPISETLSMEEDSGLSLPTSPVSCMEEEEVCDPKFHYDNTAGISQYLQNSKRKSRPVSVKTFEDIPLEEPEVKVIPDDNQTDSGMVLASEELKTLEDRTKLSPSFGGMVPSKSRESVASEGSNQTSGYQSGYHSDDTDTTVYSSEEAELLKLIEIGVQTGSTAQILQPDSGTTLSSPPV
T1 sequence (Q9Y243 whole entry, the tested form may be a part): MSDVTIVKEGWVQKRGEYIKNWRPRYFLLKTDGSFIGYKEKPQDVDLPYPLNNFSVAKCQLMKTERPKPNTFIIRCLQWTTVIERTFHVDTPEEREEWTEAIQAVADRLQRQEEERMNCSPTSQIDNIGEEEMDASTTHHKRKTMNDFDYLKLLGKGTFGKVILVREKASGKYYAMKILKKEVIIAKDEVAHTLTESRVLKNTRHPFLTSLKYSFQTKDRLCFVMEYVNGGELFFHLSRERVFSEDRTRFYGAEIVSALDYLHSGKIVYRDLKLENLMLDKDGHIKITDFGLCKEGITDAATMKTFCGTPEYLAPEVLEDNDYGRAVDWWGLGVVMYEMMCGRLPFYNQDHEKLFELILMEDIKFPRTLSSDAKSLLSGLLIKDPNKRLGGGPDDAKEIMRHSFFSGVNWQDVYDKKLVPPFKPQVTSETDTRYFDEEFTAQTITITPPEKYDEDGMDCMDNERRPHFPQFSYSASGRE
T4 sequence (P06239 whole entry, species assumed, the tested form may be a part): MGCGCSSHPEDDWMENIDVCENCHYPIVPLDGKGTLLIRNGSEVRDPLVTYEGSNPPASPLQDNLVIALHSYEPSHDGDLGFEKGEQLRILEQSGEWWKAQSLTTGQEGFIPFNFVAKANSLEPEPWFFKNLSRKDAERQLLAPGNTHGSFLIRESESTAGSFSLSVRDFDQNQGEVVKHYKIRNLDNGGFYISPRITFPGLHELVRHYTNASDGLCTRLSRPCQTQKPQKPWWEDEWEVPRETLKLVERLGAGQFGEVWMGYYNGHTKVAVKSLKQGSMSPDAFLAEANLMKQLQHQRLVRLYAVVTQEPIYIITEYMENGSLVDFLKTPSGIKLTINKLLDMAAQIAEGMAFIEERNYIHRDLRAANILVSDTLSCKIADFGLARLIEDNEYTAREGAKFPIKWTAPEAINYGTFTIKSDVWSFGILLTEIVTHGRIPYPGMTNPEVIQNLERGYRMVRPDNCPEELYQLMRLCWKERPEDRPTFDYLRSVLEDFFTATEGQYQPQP
T7 sequence (P08581 25-1390): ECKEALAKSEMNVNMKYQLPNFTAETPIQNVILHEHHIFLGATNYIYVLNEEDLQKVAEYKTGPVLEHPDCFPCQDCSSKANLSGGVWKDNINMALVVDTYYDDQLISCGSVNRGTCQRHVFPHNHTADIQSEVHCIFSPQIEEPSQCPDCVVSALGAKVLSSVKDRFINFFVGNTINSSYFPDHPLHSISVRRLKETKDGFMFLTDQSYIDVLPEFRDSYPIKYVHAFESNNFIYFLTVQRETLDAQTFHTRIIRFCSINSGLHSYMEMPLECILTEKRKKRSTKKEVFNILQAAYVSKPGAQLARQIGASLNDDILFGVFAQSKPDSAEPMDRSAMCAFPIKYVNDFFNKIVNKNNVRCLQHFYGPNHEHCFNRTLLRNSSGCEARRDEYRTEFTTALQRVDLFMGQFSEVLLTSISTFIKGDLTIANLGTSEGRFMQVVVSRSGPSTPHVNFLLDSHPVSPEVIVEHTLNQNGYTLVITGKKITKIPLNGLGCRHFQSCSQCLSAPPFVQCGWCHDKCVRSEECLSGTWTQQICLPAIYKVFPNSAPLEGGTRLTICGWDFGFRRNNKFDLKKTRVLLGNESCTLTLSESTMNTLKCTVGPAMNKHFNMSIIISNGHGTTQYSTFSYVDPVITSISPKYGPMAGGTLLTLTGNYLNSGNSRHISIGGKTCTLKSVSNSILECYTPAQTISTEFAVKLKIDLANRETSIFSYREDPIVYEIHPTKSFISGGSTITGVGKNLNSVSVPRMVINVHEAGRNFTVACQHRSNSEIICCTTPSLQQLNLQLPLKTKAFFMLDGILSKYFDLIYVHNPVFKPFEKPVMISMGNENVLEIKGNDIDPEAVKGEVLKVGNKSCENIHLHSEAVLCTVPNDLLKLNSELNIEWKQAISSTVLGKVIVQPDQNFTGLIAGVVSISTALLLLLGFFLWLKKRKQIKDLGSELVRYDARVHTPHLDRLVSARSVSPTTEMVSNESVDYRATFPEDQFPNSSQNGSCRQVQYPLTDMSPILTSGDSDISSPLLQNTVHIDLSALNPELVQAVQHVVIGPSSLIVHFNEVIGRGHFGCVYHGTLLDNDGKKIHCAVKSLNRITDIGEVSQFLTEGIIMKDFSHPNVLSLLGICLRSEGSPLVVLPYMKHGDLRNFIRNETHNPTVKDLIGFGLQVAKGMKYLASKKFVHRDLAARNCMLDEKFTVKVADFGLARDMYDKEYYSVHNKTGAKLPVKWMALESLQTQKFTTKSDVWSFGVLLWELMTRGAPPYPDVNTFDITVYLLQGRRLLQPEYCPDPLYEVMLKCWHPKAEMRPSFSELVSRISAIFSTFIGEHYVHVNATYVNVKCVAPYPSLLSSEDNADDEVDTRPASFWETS
T8 sequence (Q02763 23-1124, species assumed): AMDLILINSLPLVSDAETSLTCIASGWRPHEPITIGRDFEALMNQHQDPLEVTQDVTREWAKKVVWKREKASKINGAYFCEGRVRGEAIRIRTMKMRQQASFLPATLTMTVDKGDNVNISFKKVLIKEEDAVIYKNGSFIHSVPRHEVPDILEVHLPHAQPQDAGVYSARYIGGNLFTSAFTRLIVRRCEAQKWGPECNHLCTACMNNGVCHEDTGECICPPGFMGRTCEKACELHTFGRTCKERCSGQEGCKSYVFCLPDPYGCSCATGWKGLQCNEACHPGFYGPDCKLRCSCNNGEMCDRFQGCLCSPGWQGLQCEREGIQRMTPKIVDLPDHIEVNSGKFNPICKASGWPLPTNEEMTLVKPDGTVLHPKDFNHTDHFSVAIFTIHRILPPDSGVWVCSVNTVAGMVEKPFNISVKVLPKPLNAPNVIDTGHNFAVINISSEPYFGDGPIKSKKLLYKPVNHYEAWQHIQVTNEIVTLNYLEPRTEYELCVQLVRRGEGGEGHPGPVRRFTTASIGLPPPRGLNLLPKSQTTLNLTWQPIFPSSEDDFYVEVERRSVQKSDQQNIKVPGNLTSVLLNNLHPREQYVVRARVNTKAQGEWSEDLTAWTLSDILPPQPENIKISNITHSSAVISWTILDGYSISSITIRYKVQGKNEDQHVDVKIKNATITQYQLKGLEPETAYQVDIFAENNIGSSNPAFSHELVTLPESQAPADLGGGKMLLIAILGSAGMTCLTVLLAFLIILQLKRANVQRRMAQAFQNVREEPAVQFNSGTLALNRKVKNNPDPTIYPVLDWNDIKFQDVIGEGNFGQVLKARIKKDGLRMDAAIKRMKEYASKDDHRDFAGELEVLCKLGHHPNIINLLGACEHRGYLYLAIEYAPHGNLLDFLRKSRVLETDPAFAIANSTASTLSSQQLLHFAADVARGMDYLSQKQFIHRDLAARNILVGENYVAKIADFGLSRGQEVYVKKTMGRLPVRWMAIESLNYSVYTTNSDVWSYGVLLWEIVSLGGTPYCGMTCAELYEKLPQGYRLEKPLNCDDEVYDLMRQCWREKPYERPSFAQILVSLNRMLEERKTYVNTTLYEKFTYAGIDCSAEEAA

Row | IC50 (AKT) | IC50 (Zap-70; Table 3) | IC50 (Kdr; Table 3) | IC50 (Lck; Table 3) | IC50 (EGFR) | IC50 (Itk; Table 3) | IC50 (c-Met) | IC50 (Tek) | IC50 (Zap-70) | IC50 (Kdr) | IC50 (Lck) | IC50 (Itk) | Structure (SMILES)
1 | > 10.3 µM | > 10.3 µM | > 10.3 µM | > 10.3 µM | > 10.3 µM | > 10.3 µM | > 10.3 µM | > 10.3 µM |  |  |  |  | COc1cc(Nc2ncnc(Nc3nc(-c4ccccc4)cs3)n2)cc(OC)c1OC [Compound 444]
2 | > 13 µM |  |  |  | > 13 µM |  | > 13 µM | > 13 µM | > 13 µM | 10.1 to 13 µM | > 13 µM | > 13 µM | COc1cc(Nc2ncnc(NN3CCCC3)n2)cc(OC)c1OC [Compound 1002]
3 | 1.09 to 6.53 µM |  |  |  | 1.09 to 6.53 µM |  | 9.53 to 12.2 µM | > 12.2 µM | > 12.2 µM | > 12.2 µM | > 12.2 µM | 9.53 to 12.2 µM | CC(C)(C)c1cc(Nc2ncnc(Nc3ccc(CC(=O)O)cc3)n2)[nH]n1 [Compound 980]
4 | > 9.33 µM |  |  |  | 0.829 to 4.97 µM |  | > 9.33 µM | 7.25 to 9.33 µM | > 9.33 µM | 0.829 to 4.97 µM | 0.829 to 4.97 µM | 4.97 to 7.25 µM | COc1cc(Nc2ncnc(Nc3cccc(NC(=O)O[C@@H]4CCOC4)c3)n2)cc(OC)c1OC [Compound 694]
5 | > 9.91 µM |  |  |  | 0.881 to 5.29 µM |  | 0.881 to 5.29 µM | > 9.91 µM | > 9.91 µM | 7.71 to 9.91 µM | 5.29 to 7.71 µM | > 9.91 µM | COc1cc(Nc2ncnc(Nc3cc(-c4cccc(Cl)c4)n[nH]3)n2)cc(OC)c1OC [Compound 495]
6 | > 8.04 µM | > 8.04 µM | 0.715 to 4.29 µM | > 8.04 µM | > 8.04 µM | > 8.04 µM | > 8.04 µM | > 8.04 µM |  |  |  |  | COc1cc(Nc2ncnc(-n3c(Nc4cc(OC)c(OC)c(OC)c4)nc4ccccc43)n2)cc(OC)c1OC [Compound 402]
7 | > 10.8 µM |  |  |  | 0.958 to 5.75 µM |  | > 10.8 µM | 0.958 to 5.75 µM | 0.958 to 5.75 µM | 0.958 to 5.75 µM | 5.75 to 8.38 µM | > 10.8 µM | O=c1[nH]c2ccccc2n1-c1ncnc(Nc2ccc(Br)c(Cl)c2)n1 [Compound 483]
8 | > 8 µM |  |  |  | > 8 µM |  | > 8 µM | > 8 µM | > 8 µM | < 0.711 µM | 6.22 to 8 µM | > 8 µM | COc1cc(Nc2ncnc(-n3c(NCc4ccc(Br)cc4)nc4ccccc43)n2)cc(OC)c1OC [Compound 940]
9 | > 10.2 µM |  |  |  | > 10.2 µM |  | > 10.2 µM | 5.45 to 7.95 µM | > 10.2 µM | > 10.2 µM | 7.95 to 10.2 µM | > 10.2 µM | O=c1[nH]c2ccccc2n1-c1ncnc(Nc2cc(C(F)(F)F)cc(C(F)(F)F)c2)n1 [Compound 506]
10 | 1.08 to 6.46 µM | > 12.1 µM | < 1.08 µM | 1.08 to 6.46 µM | 1.08 to 6.46 µM | 9.42 to 12.1 µM | > 12.1 µM | 9.42 to 12.1 µM |  |  |  |  | O=c1[nH]c2ccccc2n1-c1ncnc(Nc2cccc(-c3cnco3)c2)n1 [Compound 418]
